These are literature values, as cited in patent US20170071869A1 (Teva Pharmaceutical Industries Ltd., priority 2014, published 2017).

Series [1] deals with genes related to antigen presentation (NFkB pathway). Conditions: mainly via the NFkB pathway.

Consider `CCN(C(=O)c1c(O)c2c(Cl)cccc2n(C)c1=O)c1ccccc1` [Laquinimod], for which the oral bioavailability entry is recorded as “high oral bioavailability”. In series [1], the “suppression of genes related to antigen presentation and corresponding inflammatory pathways” value was “induced suppression of genes related to antigen presentation”.
